{"source": "paper PMC7407272", "about": "“Induction of Lysosome Membrane Permeabilization as a Therapeutic Strategy to Target Pancreatic Cancer Stem Cells” (Cancers, 2020)", "experiment_in_all_cases": "KINOMEscan", "type_in_all_cases": "binding", "settings_in_all_cases": "read-out: % Ctrl", "key": {"BMPR1B": {"molecular_target": "T1, BMPR1B (Homo sapiens, UniProt O00238)", "T1 construct": "purchased DiscoveRx KINOMEscan"}, "MRCKB": {"molecular_target": "T2, MRCKB (Homo sapiens, UniProt Q9Y5S2)", "T2 construct": "purchased DiscoveRx KINOMEscan"}, "DCAMKL1": {"molecular_target": "T3, DCAMKL1 (Homo sapiens, UniProt O15075)", "T3 construct": "purchased DiscoveRx KINOMEscan"}, "ROS1": {"molecular_target": "T4, ROS1 (Homo sapiens, UniProt P08922)", "T4 construct": "purchased DiscoveRx KINOMEscan"}, "ACVR2B": {"molecular_target": "T5, ACVR2B (Homo sapiens, UniProt Q13705)", "T5 construct": "purchased DiscoveRx KINOMEscan", "T5 sequence (Q13705 19-512)": "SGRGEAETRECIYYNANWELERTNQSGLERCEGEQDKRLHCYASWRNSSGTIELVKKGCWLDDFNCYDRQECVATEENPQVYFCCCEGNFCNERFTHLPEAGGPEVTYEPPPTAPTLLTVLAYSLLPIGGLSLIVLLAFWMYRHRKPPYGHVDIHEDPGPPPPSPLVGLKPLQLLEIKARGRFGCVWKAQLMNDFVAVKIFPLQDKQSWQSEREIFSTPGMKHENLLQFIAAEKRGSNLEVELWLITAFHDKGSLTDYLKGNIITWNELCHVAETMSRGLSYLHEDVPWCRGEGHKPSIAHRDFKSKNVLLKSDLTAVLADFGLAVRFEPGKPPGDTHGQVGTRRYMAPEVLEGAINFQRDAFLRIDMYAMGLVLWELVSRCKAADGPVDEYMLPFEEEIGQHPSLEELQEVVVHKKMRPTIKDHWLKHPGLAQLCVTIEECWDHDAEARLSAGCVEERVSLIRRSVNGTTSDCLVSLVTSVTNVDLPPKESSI"}, "ALK(C1156Y)": {"molecular_target": "T6, ALK(C1156Y) (Homo sapiens, UniProt Q9UM73, C1156Y)", "T6 construct": "purchased DiscoveRx KINOMEscan"}, "KIT(D816V)": {"molecular_target": "T7, KIT(D816V) (Homo sapiens, UniProt P10721, D816V)", "T7 construct": "purchased DiscoveRx KINOMEscan", "T7 sequence (P10721 26-976 D816V)": "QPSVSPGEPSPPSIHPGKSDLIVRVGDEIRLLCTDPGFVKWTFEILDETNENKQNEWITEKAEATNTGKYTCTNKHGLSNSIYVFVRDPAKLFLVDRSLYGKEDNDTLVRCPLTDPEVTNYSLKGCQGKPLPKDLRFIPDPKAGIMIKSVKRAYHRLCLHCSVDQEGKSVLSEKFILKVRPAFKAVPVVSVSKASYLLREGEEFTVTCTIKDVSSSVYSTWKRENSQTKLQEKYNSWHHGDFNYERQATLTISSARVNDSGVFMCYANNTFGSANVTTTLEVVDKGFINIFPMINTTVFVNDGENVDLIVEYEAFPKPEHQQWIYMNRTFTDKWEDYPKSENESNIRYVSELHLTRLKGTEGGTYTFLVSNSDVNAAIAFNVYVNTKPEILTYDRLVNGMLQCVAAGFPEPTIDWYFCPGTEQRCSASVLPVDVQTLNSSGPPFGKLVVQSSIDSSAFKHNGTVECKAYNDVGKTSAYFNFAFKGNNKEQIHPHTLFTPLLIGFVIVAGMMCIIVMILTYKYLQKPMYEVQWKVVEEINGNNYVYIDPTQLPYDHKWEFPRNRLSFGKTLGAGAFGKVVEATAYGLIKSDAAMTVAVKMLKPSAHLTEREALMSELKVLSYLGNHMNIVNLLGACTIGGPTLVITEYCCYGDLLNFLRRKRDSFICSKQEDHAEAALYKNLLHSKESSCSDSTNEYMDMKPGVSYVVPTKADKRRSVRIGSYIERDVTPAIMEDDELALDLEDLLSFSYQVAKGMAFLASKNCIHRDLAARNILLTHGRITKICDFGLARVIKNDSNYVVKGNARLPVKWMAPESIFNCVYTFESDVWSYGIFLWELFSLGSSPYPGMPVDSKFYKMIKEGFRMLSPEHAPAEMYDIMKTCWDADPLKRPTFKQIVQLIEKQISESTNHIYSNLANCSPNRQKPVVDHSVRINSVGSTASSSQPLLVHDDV"}, "RSK2(KD2-C-t.)": {"molecular_target": "T8, RSK2(KD2-C-t.) (Homo sapiens, UniProt P51812)", "T8 construct": "RSK2(KD2-C-t.); purchased DiscoveRx KINOMEscan"}, "ABL1(F317L)-nonP": {"molecular_target": "T9, ABL1(F317L)-nonP (Homo sapiens, UniProt P00519, F317L)", "T9 construct": "purchased DiscoveRx KINOMEscan"}, "EPHB3": {"molecular_target": "T10, EPHB3 (Homo sapiens, UniProt P54753)", "T10 construct": "purchased DiscoveRx KINOMEscan", "T10 sequence (P54753 34-998)": "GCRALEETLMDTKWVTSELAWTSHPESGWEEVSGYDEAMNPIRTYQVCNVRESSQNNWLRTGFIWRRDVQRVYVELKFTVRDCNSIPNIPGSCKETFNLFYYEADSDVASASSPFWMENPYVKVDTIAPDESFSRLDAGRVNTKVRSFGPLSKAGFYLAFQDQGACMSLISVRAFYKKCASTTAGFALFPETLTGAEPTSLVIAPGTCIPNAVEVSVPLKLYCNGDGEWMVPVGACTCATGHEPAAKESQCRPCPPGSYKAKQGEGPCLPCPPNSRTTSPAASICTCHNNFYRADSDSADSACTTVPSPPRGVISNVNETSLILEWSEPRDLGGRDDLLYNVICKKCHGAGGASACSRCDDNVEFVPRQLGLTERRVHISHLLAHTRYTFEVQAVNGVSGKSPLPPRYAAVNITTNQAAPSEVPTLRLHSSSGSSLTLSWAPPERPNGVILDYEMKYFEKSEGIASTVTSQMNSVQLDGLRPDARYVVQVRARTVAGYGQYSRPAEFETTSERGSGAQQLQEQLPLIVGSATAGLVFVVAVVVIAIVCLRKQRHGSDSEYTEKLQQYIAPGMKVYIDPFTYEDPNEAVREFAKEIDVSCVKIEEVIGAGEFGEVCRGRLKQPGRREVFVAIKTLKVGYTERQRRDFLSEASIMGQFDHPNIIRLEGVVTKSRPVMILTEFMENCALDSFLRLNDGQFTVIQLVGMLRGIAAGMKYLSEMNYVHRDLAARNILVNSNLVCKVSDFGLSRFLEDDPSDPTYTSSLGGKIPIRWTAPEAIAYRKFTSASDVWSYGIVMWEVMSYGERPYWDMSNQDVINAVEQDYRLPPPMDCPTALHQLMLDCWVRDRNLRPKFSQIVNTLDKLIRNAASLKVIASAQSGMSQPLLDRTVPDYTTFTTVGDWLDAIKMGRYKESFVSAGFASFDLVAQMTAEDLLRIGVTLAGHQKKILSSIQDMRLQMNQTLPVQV"}, "WNK1": {"molecular_target": "T11, WNK1 (Homo sapiens, UniProt Q9H4A3)", "T11 construct": "purchased DiscoveRx KINOMEscan"}, "ADCK3": {"molecular_target": "T12, ADCK3 (Homo sapiens, UniProt Q8NI60)", "T12 construct": "purchased DiscoveRx KINOMEscan"}, "DAPK3": {"molecular_target": "T13, DAPK3 (Homo sapiens, UniProt O43293)", "T13 construct": "purchased DiscoveRx KINOMEscan"}, "CHEK1": {"molecular_target": "T14, CHEK1 (Homo sapiens, UniProt O14757)", "T14 construct": "purchased DiscoveRx KINOMEscan"}, "SRPK2": {"molecular_target": "T15, SRPK2 (Homo sapiens, UniProt P78362)", "T15 construct": "purchased DiscoveRx KINOMEscan"}, "ULK2": {"molecular_target": "T16, ULK2 (Homo sapiens, UniProt Q8IYT8)", "T16 construct": "purchased DiscoveRx KINOMEscan"}, "MARK1": {"molecular_target": "T17, MARK1 (Homo sapiens, UniProt Q9P0L2)", "T17 construct": "purchased DiscoveRx KINOMEscan"}, "STK36": {"molecular_target": "T18, STK36 (Homo sapiens, UniProt Q9NRP7)", "T18 construct": "purchased DiscoveRx KINOMEscan"}, "VRK2": {"molecular_target": "T19, VRK2 (Homo sapiens, UniProt Q86Y07)", "T19 construct": "purchased DiscoveRx KINOMEscan"}, "RIPK5": {"molecular_target": "T20, RIPK5 (Homo sapiens, UniProt Q6XUX3)", "T20 construct": "purchased DiscoveRx KINOMEscan"}, "PIK3CA(H1047L)": {"molecular_target": "T21, PIK3CA(H1047L) (Homo sapiens, UniProt P42336, H1047L)", "T21 construct": "purchased DiscoveRx KINOMEscan", "T21 sequence (P42336 whole entry H1047L)": "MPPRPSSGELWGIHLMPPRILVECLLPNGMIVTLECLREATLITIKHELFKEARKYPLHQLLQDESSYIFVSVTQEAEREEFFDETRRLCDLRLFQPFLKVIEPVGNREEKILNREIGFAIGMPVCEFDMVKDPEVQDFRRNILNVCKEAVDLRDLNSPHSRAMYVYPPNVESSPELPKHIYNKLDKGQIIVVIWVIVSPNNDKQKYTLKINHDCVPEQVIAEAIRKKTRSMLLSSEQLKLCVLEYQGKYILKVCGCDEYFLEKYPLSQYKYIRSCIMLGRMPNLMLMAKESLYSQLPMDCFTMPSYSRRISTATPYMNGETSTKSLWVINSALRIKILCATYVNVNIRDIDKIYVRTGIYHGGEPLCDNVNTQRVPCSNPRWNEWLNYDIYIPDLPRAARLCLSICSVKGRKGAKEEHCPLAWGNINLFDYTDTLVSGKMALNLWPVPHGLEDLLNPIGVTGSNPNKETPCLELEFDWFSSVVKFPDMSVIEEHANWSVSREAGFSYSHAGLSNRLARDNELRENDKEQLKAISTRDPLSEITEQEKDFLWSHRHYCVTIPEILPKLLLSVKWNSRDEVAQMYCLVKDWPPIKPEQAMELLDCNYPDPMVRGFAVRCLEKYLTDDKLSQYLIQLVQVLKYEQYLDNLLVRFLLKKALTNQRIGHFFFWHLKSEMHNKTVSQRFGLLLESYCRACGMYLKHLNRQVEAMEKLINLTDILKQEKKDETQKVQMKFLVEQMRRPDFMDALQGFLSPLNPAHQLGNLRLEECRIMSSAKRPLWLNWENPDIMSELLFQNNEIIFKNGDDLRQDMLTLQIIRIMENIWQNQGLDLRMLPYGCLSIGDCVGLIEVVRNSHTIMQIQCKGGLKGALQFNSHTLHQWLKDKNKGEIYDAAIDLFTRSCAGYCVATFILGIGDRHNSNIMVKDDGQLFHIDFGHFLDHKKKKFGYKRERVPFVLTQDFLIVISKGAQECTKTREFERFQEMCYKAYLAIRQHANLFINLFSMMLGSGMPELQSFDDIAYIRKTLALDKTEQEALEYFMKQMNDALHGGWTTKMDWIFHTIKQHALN"}, "PIK3CA(M1043I)": {"molecular_target": "T22, PIK3CA(M1043I) (Homo sapiens, UniProt P42336, M1043I)", "T22 construct": "purchased DiscoveRx KINOMEscan", "T22 sequence (P42336 whole entry M1043I)": "as the sequence (P42336 whole entry H1047L) above, with M1043I, L1047H counted along it"}, "TEC": {"molecular_target": "T23, TEC (Homo sapiens, UniProt P42680)", "T23 construct": "purchased DiscoveRx KINOMEscan"}, "BRAF(V600E)": {"molecular_target": "T24, BRAF(V600E) (Homo sapiens, UniProt P15056, V600E)", "T24 construct": "purchased DiscoveRx KINOMEscan"}, "MEK3": {"molecular_target": "T25, MEK3 (Homo sapiens, UniProt P46734)", "T25 construct": "purchased DiscoveRx KINOMEscan"}, "EPHB4": {"molecular_target": "T26, EPHB4 (Homo sapiens, UniProt P54760)", "T26 construct": "purchased DiscoveRx KINOMEscan"}, "TNK2": {"molecular_target": "T27, TNK2 (Homo sapiens, UniProt Q07912)", "T27 construct": "purchased DiscoveRx KINOMEscan"}, "TAOK3": {"molecular_target": "T28, TAOK3 (Homo sapiens, UniProt Q9H2K8)", "T28 construct": "purchased DiscoveRx KINOMEscan"}, "HPK1": {"molecular_target": "T29, HPK1 (Homo sapiens, UniProt Q92918)", "T29 construct": "purchased DiscoveRx KINOMEscan"}, "MAP3K4": {"molecular_target": "T30, MAP3K4 (Homo sapiens, UniProt Q9Y6R4)", "T30 construct": "purchased DiscoveRx KINOMEscan"}, "GCN2(KD2,S808G)": {"molecular_target": "T31, GCN2(KD2,S808G) (Homo sapiens, UniProt Q9P2K8, S808G)", "T31 construct": "purchased DiscoveRx KINOMEscan"}, "PIK3CB": {"molecular_target": "T32, PIK3CB (Homo sapiens, UniProt P42338)", "T32 construct": "purchased DiscoveRx KINOMEscan"}, "EGFR(L858R)": {"molecular_target": "T33, EGFR(L858R) (Homo sapiens, UniProt P00533, L858R)", "T33 construct": "purchased DiscoveRx KINOMEscan"}, "STK39": {"molecular_target": "T34, STK39 (Homo sapiens, UniProt Q9UEW8)", "T34 construct": "purchased DiscoveRx KINOMEscan"}, "EPHA1": {"molecular_target": "T35, EPHA1 (Homo sapiens, UniProt P21709)", "T35 construct": "purchased DiscoveRx KINOMEscan"}, "RSK3(KD2-C-t.)": {"molecular_target": "T36, RSK3(KD2-C-t.) (Homo sapiens, UniProt Q15349)", "T36 construct": "RSK3(KD2-C-t.); purchased DiscoveRx KINOMEscan"}, "AURKB": {"molecular_target": "T37, AURKB (Homo sapiens, UniProt Q96GD4)", "T37 construct": "purchased DiscoveRx KINOMEscan"}, "RET(V804L)": {"molecular_target": "T38, RET(V804L) (Homo sapiens, UniProt P07949, V804L)", "T38 construct": "purchased DiscoveRx KINOMEscan"}, "JAK1(JH1D.-cat.)": {"molecular_target": "T39, JAK1(JH1D.-cat.) (Homo sapiens, UniProt P23458)", "T39 construct": "JAK1(JH1D.-cat.); purchased DiscoveRx KINOMEscan"}, "KIT(V559D,T670I)": {"molecular_target": "T40, KIT(V559D,T670I) (Homo sapiens, UniProt P10721, T670I/V559D)", "T40 construct": "purchased DiscoveRx KINOMEscan", "T40 sequence (P10721 26-976 V559D/T670I)": "as the sequence (P10721 26-976 D816V) above, with V534D, T645I, V791D counted along it"}, "FER": {"molecular_target": "T41, FER (Homo sapiens, UniProt P16591)", "T41 construct": "purchased DiscoveRx KINOMEscan"}, "IGF1R": {"molecular_target": "T42, IGF1R (Homo sapiens, UniProt P08069)", "T42 construct": "purchased DiscoveRx KINOMEscan", "T42 sequence (P08069 31-1367)": "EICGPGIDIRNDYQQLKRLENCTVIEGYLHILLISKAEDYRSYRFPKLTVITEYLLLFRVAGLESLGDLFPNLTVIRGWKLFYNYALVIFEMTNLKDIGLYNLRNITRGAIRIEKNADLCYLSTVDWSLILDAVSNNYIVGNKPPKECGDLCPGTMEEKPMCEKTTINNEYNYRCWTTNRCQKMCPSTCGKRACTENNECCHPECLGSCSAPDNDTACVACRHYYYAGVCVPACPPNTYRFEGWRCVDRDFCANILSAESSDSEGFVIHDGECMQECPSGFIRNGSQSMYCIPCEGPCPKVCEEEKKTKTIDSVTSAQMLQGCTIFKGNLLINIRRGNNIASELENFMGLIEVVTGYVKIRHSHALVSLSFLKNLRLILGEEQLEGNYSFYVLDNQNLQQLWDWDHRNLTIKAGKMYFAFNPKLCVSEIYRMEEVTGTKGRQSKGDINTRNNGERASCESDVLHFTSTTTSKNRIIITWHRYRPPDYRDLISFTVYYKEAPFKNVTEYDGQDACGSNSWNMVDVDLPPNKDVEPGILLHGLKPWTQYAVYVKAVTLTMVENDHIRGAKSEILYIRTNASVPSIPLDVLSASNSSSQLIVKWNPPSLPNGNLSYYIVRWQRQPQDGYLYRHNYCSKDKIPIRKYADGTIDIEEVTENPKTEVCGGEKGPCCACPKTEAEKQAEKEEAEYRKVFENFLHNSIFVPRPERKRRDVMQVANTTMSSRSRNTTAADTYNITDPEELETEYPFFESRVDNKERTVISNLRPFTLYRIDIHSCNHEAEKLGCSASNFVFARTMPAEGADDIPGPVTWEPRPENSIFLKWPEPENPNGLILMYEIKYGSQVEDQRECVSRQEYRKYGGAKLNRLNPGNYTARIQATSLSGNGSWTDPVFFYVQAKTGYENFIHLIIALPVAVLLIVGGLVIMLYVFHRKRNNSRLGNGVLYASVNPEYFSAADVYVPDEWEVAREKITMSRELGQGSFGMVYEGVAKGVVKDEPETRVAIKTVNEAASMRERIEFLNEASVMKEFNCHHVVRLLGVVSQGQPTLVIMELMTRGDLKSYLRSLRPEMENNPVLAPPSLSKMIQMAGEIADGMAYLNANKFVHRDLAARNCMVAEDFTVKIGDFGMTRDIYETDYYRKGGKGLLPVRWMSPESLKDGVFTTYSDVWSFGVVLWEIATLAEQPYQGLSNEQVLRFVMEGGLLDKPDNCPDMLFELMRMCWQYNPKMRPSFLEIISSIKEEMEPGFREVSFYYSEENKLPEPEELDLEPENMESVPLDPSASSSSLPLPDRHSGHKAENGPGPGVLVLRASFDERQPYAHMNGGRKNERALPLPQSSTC"}}, "data": [{"compound": "CN1CCC(CNc2ccc3ncc(C(=O)Nc4cccc(OC(F)(F)F)c4)n3n2)CC1", "note": "[Cpd 2]", "values": [{"measurement": "remaining binding at 1 µM", "setting": "BMPR1B", "value": 99, "unit": "%"}, {"measurement": "remaining binding at 1 µM", "setting": "MRCKB", "value": 100, "unit": "%"}, {"measurement": "remaining binding at 1 µM", "setting": "DCAMKL1", "value": 85, "unit": "%"}, {"measurement": "remaining binding at 1 µM", "setting": "ROS1", "value": 91, "unit": "%"}, {"measurement": "remaining binding at 1 µM", "setting": "ACVR2B", "value": 100, "unit": "%"}, {"measurement": "remaining binding at 1 µM", "setting": "ALK(C1156Y)", "value": 85, "unit": "%"}, {"measurement": "remaining binding at 1 µM", "setting": "KIT(D816V)", "value": 89, "unit": "%"}, {"measurement": "remaining binding at 1 µM", "setting": "RSK2(KD2-C-t.)", "value": 100, "unit": "%"}, {"measurement": "remaining binding at 1 µM", "setting": "ABL1(F317L)-nonP", "value": 66, "unit": "%"}, {"measurement": "remaining binding at 1 µM", "setting": "EPHB3", "value": 86, "unit": "%"}, {"measurement": "remaining binding at 1 µM", "setting": "WNK1", "value": 100, "unit": "%"}, {"measurement": "remaining binding at 1 µM", "setting": "ADCK3", "value": 100, "unit": "%"}, {"measurement": "remaining binding at 1 µM", "setting": "DAPK3", "value": 75, "unit": "%"}, {"measurement": "remaining binding at 1 µM", "setting": "CHEK1", "value": 86, "unit": "%"}, {"measurement": "remaining binding at 1 µM", "setting": "SRPK2", "value": 94, "unit": "%"}, {"measurement": "remaining binding at 1 µM", "setting": "ULK2", "value": 100, "unit": "%"}, {"measurement": "remaining binding at 1 µM", "setting": "MARK1", "value": 100, "unit": "%"}, {"measurement": "remaining binding at 1 µM", "setting": "STK36", "value": 100, "unit": "%"}, {"measurement": "remaining binding at 1 µM", "setting": "VRK2", "value": 100, "unit": "%"}, {"measurement": "remaining binding at 1 µM", "setting": "RIPK5", "value": 84, "unit": "%"}, {"measurement": "remaining binding at 1 µM", "setting": "PIK3CA(H1047L)", "value": 93, "unit": "%"}, {"measurement": "remaining binding at 1 µM", "setting": "PIK3CA(M1043I)", "value": 90, "unit": "%"}, {"measurement": "remaining binding at 1 µM", "setting": "TEC", "value": 96, "unit": "%"}, {"measurement": "remaining binding at 1 µM", "setting": "BRAF(V600E)", "value": 100, "unit": "%"}, {"measurement": "remaining binding at 1 µM", "setting": "MEK3", "value": 94, "unit": "%"}, {"measurement": "remaining binding at 1 µM", "setting": "EPHB4", "value": 93, "unit": "%"}, {"measurement": "remaining binding at 1 µM", "setting": "TNK2", "value": 99, "unit": "%"}, {"measurement": "remaining binding at 1 µM", "setting": "TAOK3", "value": 99, "unit": "%"}, {"measurement": "remaining binding at 1 µM", "setting": "HPK1", "value": 92, "unit": "%"}, {"measurement": "remaining binding at 1 µM", "setting": "MAP3K4", "value": 86, "unit": "%"}, {"measurement": "remaining binding at 1 µM", "setting": "GCN2(KD2,S808G)", "value": 73, "unit": "%"}, {"measurement": "remaining binding at 1 µM", "setting": "PIK3CB", "value": 91, "unit": "%"}, {"measurement": "remaining binding at 1 µM", "setting": "EGFR(L858R)", "value": 94, "unit": "%"}, {"measurement": "remaining binding at 1 µM", "setting": "STK39", "value": 99, "unit": "%"}, {"measurement": "remaining binding at 1 µM", "setting": "EPHA1", "value": 100, "unit": "%"}, {"measurement": "remaining binding at 1 µM", "setting": "RSK3(KD2-C-t.)", "value": 74, "unit": "%"}, {"measurement": "remaining binding at 1 µM", "setting": "AURKB", "value": 97, "unit": "%"}, {"measurement": "remaining binding at 1 µM", "setting": "RET(V804L)", "value": 100, "unit": "%"}, {"measurement": "remaining binding at 1 µM", "setting": "JAK1(JH1D.-cat.)", "value": 100, "unit": "%"}, {"measurement": "remaining binding at 1 µM", "setting": "KIT(V559D,T670I)", "value": 100, "unit": "%"}, {"measurement": "remaining binding at 1 µM", "setting": "FER", "value": 98, "unit": "%"}, {"measurement": "remaining binding at 1 µM", "setting": "IGF1R", "value": 100, "unit": "%"}]}]}
